Test [1] has as its target T1, 5-hydroxytryptamine receptor 4 (Homo sapiens, UniProt Q13639). In words: Binding affinity towards cloned human 5-hydroxytryptamine 4E receptor expressed in C6 glial cells using [3H]GR-113808 as radioligand. The class given is cell-based.
Test [2] deals with T1, 5-hydroxytryptamine receptor 4. The test is described as follows: Antagonist activity (inhibition of 5-HT-stimulated cAMP synthesis) of compound at cloned human 5-hydroxytryptamine 4E receptor expressed in C6 glial cells by Schild analysis.

A word on the Ki: it is the equilibrium dissociation constant of an inhibitor or competing ligand from its target. The Kb is the affinity of an antagonist, worked out from how it opposes an agonist.

T1 sequence (Q13639 whole entry): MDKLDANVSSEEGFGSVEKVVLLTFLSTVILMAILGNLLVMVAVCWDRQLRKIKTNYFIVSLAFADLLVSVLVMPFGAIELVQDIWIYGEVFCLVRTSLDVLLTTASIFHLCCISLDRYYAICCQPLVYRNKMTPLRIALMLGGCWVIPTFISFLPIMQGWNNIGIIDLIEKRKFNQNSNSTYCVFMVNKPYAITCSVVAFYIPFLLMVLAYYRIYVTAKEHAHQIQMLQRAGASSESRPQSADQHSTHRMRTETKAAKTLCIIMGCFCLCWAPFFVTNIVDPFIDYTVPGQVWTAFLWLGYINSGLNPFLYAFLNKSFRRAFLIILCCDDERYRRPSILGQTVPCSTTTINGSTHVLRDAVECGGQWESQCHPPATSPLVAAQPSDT

In turn, `COc1cc(N)c(Cl)cc1C(=O)OCCN1CCN(C(=O)CNS(=O)(=O)c2cccc3c(N(C)C)cccc23)CC1` registered an inhibitory constant (Ki) in test [1] of 1720 nM.

The compound `COc1cc(N)c(Cl)cc1C(=O)OCCN1CCN(C(=O)CCCNS(=O)(=O)c2cccc3c(N(C)C)cccc23)CC1` showed a Ki in test [1] of 183 nM.

As for `COc1cc(N)c(Cl)cc1C(=O)OCCN1CCN(C(=O)CCCCCCCNS(=O)(=O)c2cccc3c(N(C)C)cccc23)CC1`, in test [1], the inhibition constant Ki was determined as 31 nM. The same measure, in the same setting: then `COc1cc(N)c(Cl)cc1C(=O)OCCN1CCN(C(=O)CCNS(=O)(=O)c2cccc3c(N(C)C)cccc23)CC1`, with 116 nM.

The compound `COc1cc(N)c(Cl)cc1C(=O)OCCN1CCC(CNc2ccc([N+](=O)[O-])c3nonc23)CC1` came in with an antagonist equilibrium constant (Kb) in test [2] of 2.1 nM. `COc1cc(N)c(Cl)cc1C(=O)OCCN1CCN(C(=O)CCCCCCCCCCNS(=O)(=O)c2cccc3c(N(C)C)cccc23)CC1` returned an inhibitory constant (Ki) in test [1] of 96 nM.

For `COc1cc(N)c(Cl)cc1C(=O)OCCN1CCC(CCNS(=O)(=O)c2cccc3c(N(C)C)cccc23)CC1`, in test [1], the Ki is 77 nM. The Ki values of the last two compounds are within 1.5-fold of each other. Still for that read-out and setting: then `COc1cc(N)c(Cl)cc1C(=O)OCCN1CCC(CCCNS(=O)(=O)c2cccc3c(N(C)C)cccc23)CC1`, with 32 nM; and `COc1cc(N)c(Cl)cc1C(=O)OCCN1CCC(CN2C(=O)c3cccc4c(N(C)C)ccc(c34)C2=O)CC1`, with 181 nM. In test [1], `COc1cc(N)c(Cl)cc1C(=O)OCCN1CCC(CCCCNS(=O)(=O)c2cccc3c(N(C)C)cccc23)CC1` showed a Ki of 24 nM.

Consider `COc1cc(N)c(Cl)cc1C(=O)OCCN1CCN(C(=O)CCCCCNS(=O)(=O)c2cccc3c(N(C)C)cccc23)CC1`, for which the inhibition constant Ki in test [1] is 180 nM. On the same count and under the same terms, in the case of `COc1cc(N)c(Cl)cc1C(=O)OCCN1CCC(CCCCN2C(=O)c3cccc4c(N(C)C)ccc(c34)C2=O)CC1` it was 59 nM. For the compound `COc1cc(N)c(Cl)cc1C(=O)OCCN1CCC(CN2C(=O)c3cccc4c(N)ccc(c34)C2=O)CC1`, in test [1], affinity was put at a Ki of 64 nM. For the same compound, the Kb in test [2] came to 9 nM.

Compound `COc1cc(N)c(Cl)cc1C(=O)OCCN1CCC(CNc2ccc([N+](=O)[O-])c3n[o+][n-]c23)CC1` returned an inhibition constant (Ki) in test [1] of 7.5 nM. In test [1], `COc1cc(N)c(Cl)cc1C(=O)OCCN1CCC(CNS(=O)(=O)c2cccc3c(N(C)C)cccc23)CC1` came in with a Ki of 7 nM. Further, the Kb in test [2] was 5.7 nM. Regarding `COc1cc(N)c(Cl)cc1C(=O)OCCN1CCC(NS(=O)(=O)c2cccc3c(N(C)C)cccc23)CC1`, in test [1], affinity was put at a Ki of 264 nM.

These data come from ChEMBL document CHEMBL1145804, “Synthesis and characterization of the first fluorescent antagonists for human 5-HT4 receptors” (J Med Chem, 2003).
